# Where “and” joins values, the source holds several entries; their conditions need not be identical. Identical values can stand only once. Entries after “also recorded” stand apart in the source; their conditions may differ. Positions of bridges follow the written chain, without caps; N, C: chain ends. Non-standard residues stand in square brackets, D forms with d. Residues, ends and D or L forms follow the SMILES beside them. d2Nal = N[C@H](Cc1ccc2ccccc2c1)C(=O)O; Nle = CCCC[C@H](N)C(=O)O
# Columns and labels:
# human MC3R = biological target: T1, human MC3R (Homo sapiens, UniProt P41968); assay: cAMP accumulation assay (HTRF), antagonist activity at MC3R; assay type: cell-based; conditions: HEK293/CRE-luc/MC3R
# T1 construct: expressed in transfected cells; host or cells: HEK293/CRE-luc/MC3R
# T1 sequence (P41968 whole entry): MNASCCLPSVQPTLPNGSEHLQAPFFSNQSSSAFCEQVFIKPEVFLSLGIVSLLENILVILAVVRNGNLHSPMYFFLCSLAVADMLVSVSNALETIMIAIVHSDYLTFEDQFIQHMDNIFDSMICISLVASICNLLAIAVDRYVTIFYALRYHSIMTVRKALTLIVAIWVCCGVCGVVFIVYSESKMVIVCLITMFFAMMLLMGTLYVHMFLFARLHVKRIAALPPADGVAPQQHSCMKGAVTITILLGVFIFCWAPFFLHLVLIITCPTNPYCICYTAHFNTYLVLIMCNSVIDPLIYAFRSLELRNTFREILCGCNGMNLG
# Experimental: (§1) The antagonist activity of exemplary non-naturally occurring melanocortin analogs (SEQ ID NOs: 3, 4, 6, 9-11, 14, 15, and 291-309) at the melanocortin 3 receptor (MC3R) and melanocortin 4 (MC4R) receptor was measured via cAMP accumulation assay, according to the following procedure.
# (§2) Recombinant cell lines shown in Table 1 were stimulated with melanocortin receptor antagonists and evaluated for cyclic adenosine monophosphate (cAMP) levels as a measurement of receptor activation. cAMP levels were quantified using Homogeneous Time-Resolved Fluorescence (HTRF). The stimulation and CAMP measurement were performed sequentially. First, the compound stimulated the G-protein coupled receptor (GPCR) which then induced downstream signaling, which was measured soon after. Cell lines and stimulated receptors used are detailed in Table 1.
# (§3) Twenty-seven exemplary synthetic peptides were tested for antagonist activity at the human MC3R and MC4R at concentrations ranging from 0.1 nM to 1,000 nM. After stimulation, the level of cyclic adenosine monophosphate (CAMP) in each well was quantified via Homogenous Time-Resolved Fluorescence (HTRF) as a measurement of receptor activity. Dose-response curves and estimated IC50 values were then obtained for each antagonist peptide against the MC3R and MC4R. HS024 (TFA) and was used as a positive control for the antagonist activity of MC3R (FIG. 1A) and MC4R (FIG. 1B).
# [1] = Phase 1 clinical trial (NCT05529849), safety; assay type: in vivo, human; conditions: 5 SAD and 3 MAD cohorts
# From the text: Safety results of the single center, inpatient, double-blind, randomized, sequential assessment of 5 SAD (1a-5a) and 3 MAD (1b-3) cohorts dosed over 5 days TCMCB07 Phase 1 Clinical Trial (NCT05529849) have been summarized in FIG. 25. The entirety of the TCMCB07 Phase 1 Clinical Trial (NCT05529849) is incorporated herein by reference.
# human MC4R = biological target: T2, human MC4R (Homo sapiens, UniProt P32245); assay: cAMP accumulation assay (HTRF), antagonist activity at MC4R; assay type: cell-based
# T2 construct: expressed in transfected cells; host or cells: HEK293/MC4R/CRE-GFP
# T2 sequence (P32245 whole entry): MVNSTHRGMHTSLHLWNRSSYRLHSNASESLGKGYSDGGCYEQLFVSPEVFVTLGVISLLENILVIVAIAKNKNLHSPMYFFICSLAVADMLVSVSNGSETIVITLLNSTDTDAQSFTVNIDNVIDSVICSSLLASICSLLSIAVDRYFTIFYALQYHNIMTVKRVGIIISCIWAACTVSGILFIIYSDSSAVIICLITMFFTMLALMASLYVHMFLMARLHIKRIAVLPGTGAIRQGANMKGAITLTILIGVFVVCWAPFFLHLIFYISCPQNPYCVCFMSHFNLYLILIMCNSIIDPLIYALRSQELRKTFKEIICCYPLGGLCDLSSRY
# Experimental: as §1, §2, §3
# [2] = TCMCB07 in plasma and cerebrospinal fluid after IV administration (blood-brain barrier transport); assay type: in vivo, rat
# Experimental: Urethane-anesthetized rats had polyethylene (PE)-tubing cannulas placed in their femoral artery and vein. Each rat was then placed in a small animal stereotaxic apparatus, their head fixed in the lateral plane with ear bars, and their head placed in a 45-50° downward angle by placing their nose below an adjustable tooth bar. This position placed the animal's cistern magna at the highest vertical position of its body. The dural covering of the dorsal cistern magna was exposed.
# A stainless steel cannula, with one end attached to PE-tubing, was placed in a stereotaxic tower cannula holder (open end down). The free end of the PE-tubing was attached to a 100 µL gas-tight Hamilton syringe with a 28-gauge needle. The cannula was adjusted to a position that approximated the middle of the exposed cistern magna, and the cannula lowered until it touched the dura mater. […] The dura has a degree of flexibility such that the cannula can depress it before it pierces it. […]
# For the experimental procedure, baseline samples of blood and CSF were taken (“O” time points), followed by the IV administration of 750 nmol/kg TCMCB07. […] Both CSF and plasma were stored at −80° C. until analyzed by (HPLC) with spectrofluoremetric monitoring at 230 nm excitation and […] (the fluorescence maximum for the Nal residue). […]
# Lewis sarcoma rat = assay: Reversal of cachexia-induced lethargy; assay type: in vivo; conditions: once-daily peripheral dosing for 48 hours (2 IP doses)
# From the text: In animals and humans, cachexia produces “lethargy,” i.e., the aversion to activity. Grossberg et al., J. Neurosci. 31 (31): 11376-11386. […] This therapeutic effect is dependent on a stabilized non-naturally occurring melanocortin analog C-terminal extension. Video recordings characterized control animal behavior as neo-exploratory movement about the cage, i.e., repeated “sniffing” the air to presumably sample odors (e.g., neighboring animals), grooming, and intermittent bouts of eating and drinking. Caldecott-Hazard et al., J. Neurosci. 8 (6): 1951-1961 (1988).
# The animal typically remains in one position for an extended period of time (>1 minute). Occasionally it will change position, assuming the new position for an extended period. The rats show no grooming behavior, evident in the appearance of their coat and eyes.
# LPS model of cachexia = assay: LPS-induced cachexia assay in rats; assay type: in vivo, rat; conditions: for peripheral (IP) anti-cachexia activity / blood-brain barrier transport: peripheral administration
# Experimental: The LPS model uses rats were maintained on a 12 h light/dark schedule with ad libitum access to food and water. Animals were handled daily for a minimum of three consecutive days to decrease non-specific handling stress. On the day of the experiment, individually housed animals received intraperitoneal injections of LPS dissolved in 0.5% low-endotoxin BSA, 0.9% saline or 0.5% BSA in 0.9% saline alone, and were returned to their home cage. The drug or control was administered (ICV, IP, or PO, depending on the type of study) 1-hour after LPS injection.
# In the experiments performed in accordance with the present technology, a series of melanocortin receptor antagonist peptides were examined in a bacterial endotoxin inducing cachexia assay. For this assay, a rat is challenged with a single peripheral injection of lipopolysaccharide (LPS). LPS is a heat-stable lipo-polysaccharide, the major component of the outer membrane (capsule) of gram negative bacteria. In non-capsulated strains, it appears as a cell surface protein. LPS produces a strong immune response, including secretion of the proinflammatory cytokines Tumor Necrosis Factor α (TNFα) and interleukin-1 (IL-1). Proinflammatory cytokines are known factors that induce cachexia.
# Rats are maintained on a 12-hour light/dark cycle. Animals are handled daily for a minimum of 5 consecutive days to acclimate them to the handling required for the experiment. […] On the day of the experiment, individually housed animals receive intraperitoneal (IP) injections of LPS dissolved in 0.5% low-endotoxin BSA, 0.9% saline or 0.5% BSA in 0.9% saline alone, and returned in their home cage. Melanocortin receptor antagonist peptides were administered (IP or by gavage, depending on the type of study) one hour after the LPS injection. The extent of cachexia is measured by the reduction in food intake, measured every two hours. The cachexia typically lasts only a single day. However, rats lose up to 5% of their body weight during a 12-hour light cycle, making up this loss plus food needed for normal growth during the 12-hour dark cycle. Thus, failure to eat appropriately during a single dark cycle is determinable from the animal's weight and any changes thereof.
# A series of melanocortin receptor antagonist peptides were examined in a bacterial toxin inducing cachexia assay. In this assay, a rat was challenged with a single peripheral injection of lipopolysaccharide (LPS), a bacterial toxin that rapidly induces acute cachexia. The extent of cachexia was measured as a reduction in food intake, measured every two hours. The cachexia typically lasts only a single day.
# [3] = biological target: human melanocortin 3 receptor (MC3R) (human) (UniProt P41968); assay: cell-based or functional assay
# Chain of human melanocortin 3 receptor (MC3R) (human) (P41968 whole entry): as the sequence (P41968 whole entry) above
# [4] = biological target: human melanocortin 4 receptor (MC4R) (human) (UniProt P32245); assay: cell-based or functional assay
# Chain of human melanocortin 4 receptor (MC4R) (human) (P32245 whole entry): as the sequence (P32245 whole entry) above
# Lewis sarcoma rat model = Lewis sarcoma rat model of cancer cachexia; assay type: in vivo
# Experimental: This sarcoma is an aggressive form of cancer that produces significant cachexia. Popp et al., Cancer 49 (6): 1212-1220 (1982). In the protocol, “treatment” began 8-days after tumor implantation, with a significant decrease in food intake from baseline. Body composition was determined by NMR prior to tumor implantation, and on the final day of the experiment after tumor resection, by ECHO MRI (NMR). Tumor implantation produces cachexia on or about the sixth day. The non-naturally occurring melanocortin analog or saline was administered after day 8 and continued through day 12.
# [5] = system: urethane-anesthetized rats; assay: Cardiovascular effects (MAP, heart rate, ECG) in urethane-anesthetized rats
# Experimental: These studies were performed in urethane-anesthetized rats, since anesthesia is required for six-lead ECG monitoring. […] Initial selection of doses was guided by FDA exploratory IND studies with a recommendation for at least a 100-fold excess of the human dose.
compound,measurement,setting,value
"CCCC[C@H](NC(C)=O)C(=O)N[C@H]1CC(=O)NCCCC[C@@H](C(=O)N[C@@H](C(=O)N2CCC[C@@H]2C(N)=O)C(C)C)NC(=O)[C@H](Cc2c[nH]c3ccccc23)NC(=O)[C@H](CCCN=C(N)N)NC(=O)[C@@H](Cc2ccc3ccccc3c2)NC(=O)[C@@H]2CCCN2C1=O [TCMCB07, Ac-Nle-c[Asp-Pro-dNal(2′)-Arg-Trp-Lys]-dVal-dPro-NH2] (Ac-[Nle]DP[d2Nal]RWK[dV][dP]-NH2; lactam 2-7)",Emax,"human MC3R; 0.1 nM to 1,000 nM, read-out: Max Activation %",112%
same,IC50,human MC3R; estimated from dose-response curve,< 10000 nM and 43.4 nM
same,CAEs,[1],zero
same,clinically relevant abnormal laboratory test results,[1],zero
same,clinically relevant abnormal physical exams,[1],zero
same,drug-related SAEs,[1],zero
same,patients having abnormal ECGs,[1],zero
same,Emax,"human MC4R; HEK293, HEK293/MC4R/CRE-GFP, 0.1 nM to 1,000 nM, read-out: Max Activation %",118%
same,IC50,"human MC4R; HEK293/MC4R/CRE-GFP, estimated from dose-response curve",< 10000 nM and 26.9 nM
same,presence in CSF / transport through the blood-brain-barrier,"[2]; IV 750 nmol/kg, HPLC effluent by mass spectrometry",confirmed the presence of TCMCB07 in CSF; also recorded: direct physical evidence of TCMCB07 transport through the blood-brain-barrier
same,level at time molar at 2 min,"[2]; rat, plasma, 2 minutes post-intravenous administration, 750 nmol/kg, read-out: Concentration in plasma",7 µM
Ac-Nle-c[Asp-Pro-DNal(2′)-Arg-Trp-Lys]-β^3Pro-β^2Val-NH2 [TCMCB05],behavior (lethargy),Lewis sarcoma rat,restored “normal” behavior to rats
same,"food intake and body weight, 24-hours",LPS model of cachexia; 0.2 mg/kg intraperitoneally,had stimulated appetites and gained weight
same,anti-cachectic activity after ICV administration,LPS model of cachexia,molar activity equivalent to TCMCB02
same,molar activity relative to TCMCB02,LPS model of cachexia; ICV-administration,10 fold
same,peripheral (IP) anti-cachexia activity / blood-brain barrier transport,LPS model of cachexia,had IP anti-cachexia activity; also recorded: had peripheral anti-cachexia activity
HS024 (TFA) (peptide),"IC50 (cAMP by HTRF, antagonist dose-response)",[3],867 nM
same,Max Activation %,[3],102%
same,"IC50 (cAMP by HTRF, antagonist dose-response)",[4],153 nM
same,Max Activation %,[4],104%
"CCCC[C@H](NC(C)=O)C(=O)N[C@H]1CC(=O)NCCCC[C@@H](C(=O)N[C@@H](C(=O)N2CCC[C@@H]2C(=O)N[C@@H](C(=O)O)[C@H](C)O)[C@H](C)O)NC(=O)[C@H](Cc2c[nH]c3ccccc23)NC(=O)[C@H](CCCNC(=N)N)NC(=O)[C@@H](Cc2ccc3ccccc3c2)NC(=O)[C@@H]2CCCN2C1=O [TCMCB01, Ac-Nle-c[Asp-Pro-DNal(2′)-Arg-Trp-Lys]-DThr-DPro-DThr] (Ac-[Nle]DP[d2Nal]RWK[dT][dP][dT]-OH; lactam 2-7)",food intake (reversal of cachexia-anorexia),Lewis sarcoma rat model; 2 nmol once per day,equivalent to AGRP; also recorded: reversed the cachexia-anorexia of the tumor burden
same,potency compared with AGRP and SHU9119,Lewis sarcoma rat model; 2 nmol once per day,"as potent as the natural melanocortin system inhibitor Agouti Related Protein (AGRP), and significantly more potent than SHU9119"
same,body weight after tumor implantation,Lewis sarcoma rat model; daily body weight,significantly greater than saline controls
same,lean body mass (NMR after tumor excision),Lewis sarcoma rat model; p=0.05,increased lean body mass
same,anti-cachectic effect relative to AGRP,Lewis sarcoma rat model; related study (not shown),20 % greater than AGRP
same,Duration,[5]; 600 nmol,0 min
same,Peak Heart Rate Response (BPM),[5]; 600 nmol,0/0 BPM
same,Peak MAP Response (Δ mm Hg),[5]; 600 nmol,0/0 mm Hg
same,cardiovascular activity / side effects,"[5]; rat, in vivo",little cardiovascular activity
same,anti-cachectic activity after ICV administration,LPS model of cachexia,only produced an anti-cachexia effect when given by IVt administration
same,peripheral (IP) anti-cachexia activity / blood-brain barrier transport,LPS model of cachexia,did not have peripheral activity; also recorded: no blood-brain barrier transport
